The values that follow come from patent publication US20240262783A1, “PHARMACEUTICAL SALT OF FINGOLIMOD, PREPARATION METHOD, PHARMACEUTICAL COMPOSITION AND USE THEREOF” (SHANGHAI BOCIMED PHARMACEUTICAL CO., LTD., priority 2021, published 2024).

≈ marks a conversion by molar mass, not a printed value. Counter-ions that a name gives are not always drawn. Like-named read-outs stand apart in the source and are kept apart here. Some results are limits rather than exact numbers.

Series [1] in a line: in vivo. The note with it: male, SD, rat, po, 0.1 mg/kg.
Procedure: (§1) Six male SD rats were divided into two groups. […] In the whole study, the animals in the intramuscular injection group were given ad libitum access to food and water, and those in the oral group were fasted overnight before administration and given access to food at 4 h post-dose.
(§2) Collection of plasma sample: about 150 μL of blood was collected from the jugular vein (whole blood was centrifuged within 30 min to isolate plasma) and placed in a tube containing anticoagulant EDTA-K2, and after treatment, plasma was stored in a freezer at −70° C. before use.
(§3) Pretreatment of plasma sample: to 30 μL of plasma sample, 200 μL of internal standard solution (40 ng/mL Glipizide acetonitrile solution) was added; the mixture was vortexed for 1 min and centrifuged at 5800 rpm at 4° C. for 10 min; 100 μL of supernatant was transferred to a new plate 5 μL of the solution was taken for LC-MS/MS.
The conditions of series [2]: male, SD, rat, in vivo, po, 0.1 mg/kg.
Procedure: as §1, §2, §3
Series [3] can be described thus: Pharmacokinetic study in male SD rats (plasma Fingolimod by LC-MS/MS).
Procedure: as §1, §2, §3
Series [4] in a line: Comparison of solid state stability (related substances by HPLC). Format: physicochemical. The note with it: for Solid state stability, total related substances (in words): stood in high temperature, high humidity, accelerated, illumination and long-term conditions for 10 d. As to the method:
Method for Detecting Related Substances by HPLC [table] The crystalline form 1 of Fingolimod 1-hydroxy-2-naphthoate prepared in Example 14, the crystalline form A of Fingolimod embonate prepared in Example 3, and Fingolimod hydrochloride were stood in a high temperature (60° C.)condition, a high humidity (25° C./90% RH) condition, an accelerated (40° C./75% RH) condition, an illumination (1.2× 10^6 Lux·hr) condition, and a long-term (25° C./60% RH) condition, and samples were taken on day 0, day 5, and day 10 for related substance detection by HPLC.

Series [5] can be described thus: Comparison of solubility (shaken at 37° C. for 24 h, HPLC). The note with it: for Solubility: 24 h; for solubility at 24 h: 37 °C, thermodynamic from solid. In kind it is physicochemical. As to the method: The crystalline form 1 of Fingolimod 1-hydroxy-2-naphthoate prepared in Example 14, the crystalline form B of Fingolimod embonate prepared in Example 2, Fingolimod hydrochloride and the Fingolimod free base prepared in Example 12 were added to corresponding media described below. The mixtures were shaken at 37° C. for 24 h and filtered through 0.45 μm aqueous-phase filter membranes. The filtrates were collected for determination of solubility by high-performance liquid chromatography. The corresponding media were acetate buffer solutions at pH 3 and pH 5 and phosphate buffer solutions at pH 7 and pH 9, and the water was ultrapure water.

[6] abbreviates: injection group, intramuscular 3 mg/kg.
Setting [7] is: Accelerated (40° C./75% RH), Day 5.
[8] abbreviates: Accelerated (40° C./75% RH), Day 10.
[9] abbreviates: Day 0 (baseline, all conditions).
The mark [10] stands for this setting: High humidity (25° C./90% RH), Day 5.
Setting [11] is: High humidity (25° C./90% RH), Day 10.
The mark [12] stands for this setting: High temperature (60° C.), Day 5.
Where [13] appears, read: High temperature (60° C.), Day 10.
The mark [14] stands for this setting: Illumination (1.2× 10^6 Lux·hr), Day 5.
Setting [15] is: Illumination (1.2× 10^6 Lux·hr), Day 10.
[16] abbreviates: Long-term (25° C./60% RH), Day 5.
[17] abbreviates: Long-term (25° C./60% RH), Day 10.

The term MRT denotes the average time that molecules of a dose stay in the body. The Solubility is the dissolved amount per volume that the medium holds. A low value points to a poorly soluble substance. The term solubility denotes the dissolved amount per volume that the medium holds. Lower therefore signals a poorly soluble substance.

`CCCCCCCCc1ccc(CCC(N)(CO)CO)cc1` [Fingolimod]: the MRT in series [1] is 12 h. In addition, in series [2], the “Time post-dose at which plasma concentration reached the peak value” came to 12 h.

In the case of Fingolimod 1-hydroxy-2-naphthoate, the “Cmax relative to dose (in words)” value in series [3] (injection group 3 mg/kg versus oral group 0.1 mg/kg) is listed as “did not increase in proportion to the dose”. The molecule also registered an MRT in series [3] (setting [6]) of 12 days. For the same molecule, in series [3] (setting [6]), the “Time for plasma concentration to reach a relatively steady state” value was not above 1 days. In addition, the “Time plasma concentration was maintained above 0.3 ng/ml” value in series [3] (setting [6]) is “at least 15 days”. The “Time post-dose at which plasma concentration reached the peak value” in series [3] (injection group, intramuscular 3 mg/kg (Example 18 sample)) was determined as 3 h. The “Changes in total related substances relative to day 0” value in series [4] (setting [7]) is −0.09%; in series [4] (setting [8]), −0.07%; in series [4] (setting [9]), 0%; in series [4] (setting [10]), −0.04%; in series [4] (setting [11]), −0.07%; in series [4] (setting [12]) it was −0.05%. The “Changes in total related substances relative to day 0” value in series [4] (setting [13]) is on record as −0.16%; in series [4] (setting [14]), −0.05%; in series [4] (setting [15]) it was 0.02%; in series [4] (setting [16]) it was −0.17%; in series [4] (setting [17]) it was −0.15%. In addition, the “Solid state stability, total related substances (in words)” value in series [4] is “remained substantially unchanged”. In addition, the Solubility in series [5] (Water (ultrapure), 37° C.) is 5.46 µg/mL; in series [5] (pH 3 acetate buffer, 37° C.), 20.07 µg/mL; in series [5] (pH 5 acetate buffer, 37° C.), 9.17 µg/mL; in series [5] (pH 7 phosphate buffer, 37° C.) it was 0.54 µg/mL; in series [5] (pH 9 phosphate buffer, 37° C.), 0.58 µg/mL. For the same molecule, in series [5] (water), the “Solubility in water relative to the solubility of Fingolimod free base” value is listed as “one fourth to one fifth”. The “Solubility in water relative to the solubility of Fingolimod hydrochloride” value in series [5] (water) is “one thousandth to one twenty-six hundredth”.

On to `CCCCCCCCc1ccc(CCC(N)(CO)CO)cc1` [Fingolimod free base, reference compound], for which the Solubility result in series [5] (Water (ultrapure), 37° C.) is “about 23 μg/mL”; in series [5] (pH 3 acetate buffer, 37° C.), 5561.36 µg/mL (≈ 18.1 mM); in series [5] (pH 5 acetate buffer, 37° C.), 473.53 µg/mL (≈ 1.54 mM).

Consider “Fingolimod embonate [listing 1 of 2 here]”, for which the Solubility in series [5] (Water (ultrapure), 37° C.) was 0.2 µg/mL; in series [5] (pH 3 acetate buffer, 37° C.) it was 36.18 µg/mL; in series [5] (pH 5 acetate buffer, 37° C.), 1.75 µg/mL; in series [5] (pH 7 phosphate buffer, 37° C.), 21.26 µg/mL; in series [5] (pH 9 phosphate buffer, 37° C.), 5.8 µg/mL.

With `CCCCCCCCc1ccc(CCC(N)(CO)CO)cc1` [Fingolimod hydrochloride, reference compound], the “Changes in total related substances relative to day 0” value in series [4] (setting [7]) is on record as −0.07%; in series [4] (setting [8]), 0.01%; in series [4] (setting [9]), 0%; in series [4] (setting [10]) it was −0.07%; in series [4] (setting [11]), −0.07%; in series [4] (setting [12]) it was 0.03%. The “Changes in total related substances relative to day 0” value in series [4] (setting [13]) is recorded as 0.02%; in series [4] (setting [14]) it was −0.04%; in series [4] (setting [15]), −0.03%; in series [4] (setting [16]) it was 0.04%; in series [4] (setting [17]), −0.12%. Besides, the “Behaviour of the salt in the media (in words)” value in series [5] is given as “dissociated into the Fingolimod free base”. The solubility at 24 h in series [5] (pH 3, aqueous buffer) was more than 33.5 mg/mL; in series [5] (pH 5, aqueous buffer), more than 15.6 mg/mL; in series [5] (pH 7, aqueous buffer), less than 0.00015 mg/mL; in series [5] (pH 9, aqueous buffer), less than 0.00015 mg/mL; in series [5] (water), approximately 14 mg/mL. Further, in series [5], the Solubility was more than 13900 µg/mL.

Turning to “Fingolimod embonate [listing 2 of 2 here]”, the “Changes in total related substances relative to day 0” value was 0% in series [4] (setting [7]); −0.11% in series [4] (setting [8]); 0% in series [4] (setting [9]); 0.12% in series [4] (setting [10]); 0.11% in series [4] (setting [11]); −0.04% in series [4] (setting [12]). For the same molecule, the “Changes in total related substances relative to day 0” value in series [4] (setting [13]) is −0.21%; in series [4] (setting [14]), 0.2%; in series [4] (setting [15]), 0.3%; in series [4] (setting [16]), 0.08%; in series [4] (setting [17]), −0.01%. For the same molecule, in series [4], the “Solid state stability, total related substances (in words)” value is “relatively stable in other conditions than the illumination condition where the impurities were slightly increased”.
